9 compounds from PubChem BioAssay (NCI) can be followed below.

Some test systems named below: TK-10 renal; HS 578T breast; HCT-15 colon; ACHN renal; DU-145 prostate; HOP-62 NSCLC; A498 renal; NCI-H460 lung.
Holding throughout (assay): NCI-60 cell line screen, 48 h

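In this assay, cells in 96-well plates receive the compound at five concentrations for 48 hours. Endpoints are linearly interpolated between the surrounding concentrations. GI50: concentration for 50% inhibition of growth. TGI: concentration producing complete growth inhibition.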 Some results are limits rather than exact numbers.

Take `CN(C)c1ccc(/C=N/NC(=S)Nc2ccccc2)cc1`: the TGI in the assay with TK-10 renal, in the assay on HS 578T breast, in the assay with HCT-15 colon, with ACHN renal, with DU-145 prostate and in the assay with HOP-62 NSCLC was above 100 µM in each case. Besides, the TGI in the assay on A498 renal and in the assay on NCI-H460 lung was above 100 µM in each case.
Take `NC(=S)N/N=C\c1nccc2c(C(F)(F)F)cccc12`: the GI50 in the assay on TK-10 renal was 0.516 µM; with HS 578T breast, 1.36 µM; in the assay on HCT-15 colon it was 0.315 µM; in the assay on ACHN renal, 0.226 µM; in the assay with DU-145 prostate it was 0.292 µM; in the assay with HOP-62 NSCLC, 0.207 µM. Further, the figures for the GI50 in the assay on A498 renal and with NCI-H460 lung were 0.433 µM and 0.26 µM, respectively. Also, the TGI is 32.1 µM with TK-10 renal; above 58.8 µM in the assay on HS 578T breast; 19.2 µM in the assay with HCT-15 colon; 5.58 µM in the assay on ACHN renal; above 39.3 µM in the assay with DU-145 prostate; 1.4 µM in the assay on HOP-62 NSCLC. In addition, the TGI in the assay on A498 renal came to 10.6 µM; in the assay on NCI-H460 lung it was 8.59 µM.
For the compound `CC[C@@H](c1ccc(O)c(O)c1)[C@@H](CC)c1ccc(O)c(O)c1`, the GI50 in the assay with TK-10 renal is 26 µM; in the assay on HS 578T breast, 73.3 µM; with HCT-15 colon it was 2.39 µM; with ACHN renal, 1.94 µM; in the assay on DU-145 prostate, 12.9 µM; in the assay with HOP-62 NSCLC, 17.7 µM. Besides, the GI50 with A498 renal was 44.4 µM; in the assay with NCI-H460 lung, 26.1 µM. Moreover, the TGI was 70.3 µM with TK-10 renal; above 100 µM in the assay on HS 578T breast; 9.41 µM with HCT-15 colon; 4.03 µM with ACHN renal; 26.2 µM in the assay on DU-145 prostate; 33 µM in the assay with HOP-62 NSCLC. Further, the values for the TGI in the assay on A498 renal and in the assay on NCI-H460 lung were above 100 µM and 62 µM, respectively.
Regarding `CN1CCN(c2ccc(Nc3ncc(Cl)c(NC[C@@H]4CCCO4)n3)cc2)CC1`, the GI50 in the assay with TK-10 renal is 1.75 µM; with HS 578T breast it was 1.32 µM; in the assay with HCT-15 colon, 2.04 µM; in the assay with ACHN renal, 0.973 µM; with DU-145 prostate it was 1.96 µM; in the assay on HOP-62 NSCLC it was 0.705 µM. Besides, the results for the GI50 with A498 renal and in the assay with NCI-H460 lung were 0.803 µM and 0.573 µM, respectively. Besides, the TGI with TK-10 renal was 8.39 µM; in the assay on HS 578T breast, 11.2 µM; with HCT-15 colon, above 100 µM; in the assay with ACHN renal, above 100 µM; with DU-145 prostate it was above 100 µM; in the assay with HOP-62 NSCLC, 4.61 µM. The figures for the TGI in the assay on A498 renal and in the assay with NCI-H460 lung were 3.36 µM and 6.55 µM, respectively.
As to `O=C1c2c(F)c(F)c(F)c(F)c2C(=O)N1c1ccc(F)cc1F`, the GI50 in the assay with TK-10 renal was 13.7 µM; with HS 578T breast, 35.5 µM; in the assay on HCT-15 colon it was 2.57 µM; in the assay on ACHN renal, 10.1 µM; in the assay on DU-145 prostate, 8 µM; with HOP-62 NSCLC, 15.2 µM. The GI50 in the assay with A498 renal is 25.8 µM; in the assay with NCI-H460 lung, 9.35 µM. In addition, the TGI in the assay on TK-10 renal was above 51 µM; in the assay with HS 578T breast, above 100 µM; in the assay with HCT-15 colon it was 7.43 µM; with ACHN renal, 23 µM; in the assay on DU-145 prostate it was 23.4 µM; in the assay on HOP-62 NSCLC, 31.4 µM. In addition, the TGI is 55.1 µM in the assay with A498 renal and above 51 µM in the assay with NCI-H460 lung.
As to `C=C(C)C12OC1[C@@]1(C)C(=CC2=O)CCC(O)[C@@H]1C` (stereo partly drawn), the TGI in the assay with TK-10 renal was above 100 µM; in the assay with HS 578T breast, 9.26 µM; in the assay with HCT-15 colon, above 100 µM; with ACHN renal it was 2.42 µM; in the assay on DU-145 prostate, 33.1 µM; in the assay with HOP-62 NSCLC, 11.7 µM. Also, the TGI worked out at 62.5 µM with A498 renal and 11.4 µM in the assay with NCI-H460 lung.
Turning to `COc1ccc(CN2C(=O)C(Cl)=C(Nc3cccc(C(F)(F)F)c3)C2=O)cc1`, the GI50 with TK-10 renal is 16.8 µM; in the assay on HS 578T breast, 3.14 µM; in the assay with HCT-15 colon it was 3.69 µM; in the assay on ACHN renal, 6.71 µM; with DU-145 prostate, 8.19 µM; with HOP-62 NSCLC, 18.2 µM. The GI50 with A498 renal was 2.61 µM; in the assay on NCI-H460 lung, 3.1 µM. In addition, the TGI in the assay on TK-10 renal is 46.3 µM; with HS 578T breast, 13.1 µM; in the assay with HCT-15 colon it was 17.6 µM; with ACHN renal it was 20.5 µM; with DU-145 prostate it was 21.6 µM; in the assay with HOP-62 NSCLC, above 100 µM. Moreover, the figures for the TGI in the assay on A498 renal and in the assay on NCI-H460 lung were 9.02 µM and 15.1 µM, respectively.
As for `CC(C)(C)[Si](C)(C)OC1[C@@H](O[Si](C)(C)C(C)(C)C)[C@@H](CNC(=O)NC(=O)C(F)(F)F)O[C@H]1n1cnc2c(NC(=O)Nc3ccccc3)ncnc21` (stereo partly drawn), the GI50 was 9.77 µM in the assay with TK-10 renal; 4.5 µM in the assay with HS 578T breast; 2.94 µM in the assay with HCT-15 colon; 5.54 µM with ACHN renal; 6.52 µM in the assay on DU-145 prostate; 7.41 µM in the assay on HOP-62 NSCLC. The GI50 in the assay with A498 renal is 6.34 µM; with NCI-H460 lung, 6.39 µM. The TGI came to 17.2 µM with TK-10 renal; 17.2 µM in the assay with HS 578T breast; 9.12 µM with HCT-15 colon; 11.5 µM in the assay with ACHN renal; 13.2 µM in the assay on DU-145 prostate; 14.1 µM with HOP-62 NSCLC. The figures for the TGI in the assay with A498 renal and in the assay with NCI-H460 lung were 13 µM and 15.7 µM, respectively.
For the compound `O=C1OCC2=C1C(c1cccc(Br)c1)c1cc3c(cc1N2CCO)OCCO3` (stereo not drawn), the GI50 in the assay with TK-10 renal was 0.101 µM; in the assay on HS 578T breast it was 0.0715 µM; in the assay with HCT-15 colon, 0.0766 µM; in the assay on ACHN renal, 0.103 µM; in the assay on DU-145 prostate, 0.107 µM; in the assay on HOP-62 NSCLC it was 0.0891 µM. In addition, the results for the GI50 in the assay with A498 renal and in the assay on NCI-H460 lung were 0.0167 µM and 0.0588 µM, respectively. Besides, the TGI in the assay with TK-10 renal was 16.9 µM; with HS 578T breast, above 21.3 µM; in the assay on HCT-15 colon it was above 50 µM; with ACHN renal, above 34 µM; with DU-145 prostate, 0.752 µM; in the assay on HOP-62 NSCLC, 18.7 µM. Besides, the results for the TGI in the assay with A498 renal and in the assay on NCI-H460 lung were 0.466 µM and 2.21 µM, respectively.
